Laboratory results from patent US20100092402A1, “TREATMENT OF RESPIRATORY DISEASE” (Mucokinetica Ltd., priority 2007, published 2010).
Where two headings read alike, the source gives them in different places.

Target: T1, epithelial amiloride-sensitive sodium channel (ENaC) (Homo sapiens, UniProt P37088+P51168+P51170)
T1 sequence (P37088 1-669): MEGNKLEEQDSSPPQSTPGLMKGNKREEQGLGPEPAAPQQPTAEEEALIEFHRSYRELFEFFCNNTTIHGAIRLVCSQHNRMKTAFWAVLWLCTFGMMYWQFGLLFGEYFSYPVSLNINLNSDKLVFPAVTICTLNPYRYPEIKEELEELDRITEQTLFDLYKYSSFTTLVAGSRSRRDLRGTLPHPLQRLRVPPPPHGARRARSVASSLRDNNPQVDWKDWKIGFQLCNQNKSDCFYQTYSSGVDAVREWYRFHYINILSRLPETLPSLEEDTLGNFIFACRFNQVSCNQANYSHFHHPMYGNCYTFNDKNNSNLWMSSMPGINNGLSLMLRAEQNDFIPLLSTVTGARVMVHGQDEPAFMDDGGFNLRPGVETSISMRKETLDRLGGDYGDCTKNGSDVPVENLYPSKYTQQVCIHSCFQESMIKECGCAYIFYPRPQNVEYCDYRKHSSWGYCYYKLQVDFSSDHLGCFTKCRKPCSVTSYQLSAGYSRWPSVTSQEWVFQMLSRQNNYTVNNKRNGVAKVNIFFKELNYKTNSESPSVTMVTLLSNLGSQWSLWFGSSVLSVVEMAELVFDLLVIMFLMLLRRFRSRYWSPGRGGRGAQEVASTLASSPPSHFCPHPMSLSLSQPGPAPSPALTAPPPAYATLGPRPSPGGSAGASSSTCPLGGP
T1 sequence (P51168 1-640): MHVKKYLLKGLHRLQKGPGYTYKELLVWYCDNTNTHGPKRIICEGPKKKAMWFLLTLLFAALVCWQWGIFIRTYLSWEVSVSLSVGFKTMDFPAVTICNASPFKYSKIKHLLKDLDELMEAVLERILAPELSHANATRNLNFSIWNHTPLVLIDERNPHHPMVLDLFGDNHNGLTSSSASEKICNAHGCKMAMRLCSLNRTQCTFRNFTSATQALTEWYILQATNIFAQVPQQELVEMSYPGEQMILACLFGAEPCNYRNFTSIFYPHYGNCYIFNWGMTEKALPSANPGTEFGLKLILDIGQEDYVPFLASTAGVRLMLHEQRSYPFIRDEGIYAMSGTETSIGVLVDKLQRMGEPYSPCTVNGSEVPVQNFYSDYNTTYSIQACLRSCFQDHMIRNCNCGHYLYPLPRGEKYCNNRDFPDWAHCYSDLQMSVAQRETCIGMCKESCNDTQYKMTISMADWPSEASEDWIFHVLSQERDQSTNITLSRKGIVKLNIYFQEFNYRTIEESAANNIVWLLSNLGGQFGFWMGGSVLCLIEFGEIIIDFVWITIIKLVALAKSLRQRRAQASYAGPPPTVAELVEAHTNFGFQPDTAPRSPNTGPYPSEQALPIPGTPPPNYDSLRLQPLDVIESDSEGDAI
T1 sequence (P51170 1-649): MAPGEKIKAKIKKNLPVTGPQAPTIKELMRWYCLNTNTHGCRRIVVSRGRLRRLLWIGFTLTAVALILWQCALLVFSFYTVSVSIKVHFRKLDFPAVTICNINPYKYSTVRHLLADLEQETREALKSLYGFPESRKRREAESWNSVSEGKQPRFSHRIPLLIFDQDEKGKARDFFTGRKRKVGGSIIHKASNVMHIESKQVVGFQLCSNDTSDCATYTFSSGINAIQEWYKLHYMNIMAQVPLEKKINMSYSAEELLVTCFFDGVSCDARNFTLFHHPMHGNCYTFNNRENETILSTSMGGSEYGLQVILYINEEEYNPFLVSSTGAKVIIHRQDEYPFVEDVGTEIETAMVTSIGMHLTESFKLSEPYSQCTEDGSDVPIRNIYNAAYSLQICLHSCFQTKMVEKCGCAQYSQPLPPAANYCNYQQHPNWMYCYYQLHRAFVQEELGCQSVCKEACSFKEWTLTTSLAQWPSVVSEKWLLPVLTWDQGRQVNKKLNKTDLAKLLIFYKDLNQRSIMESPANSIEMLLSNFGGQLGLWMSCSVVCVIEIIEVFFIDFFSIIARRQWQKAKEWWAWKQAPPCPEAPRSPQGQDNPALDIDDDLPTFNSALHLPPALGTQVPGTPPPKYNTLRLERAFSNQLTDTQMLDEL
Type: cell-based
Conditions: for average baseline Isc slope in initial recording period: control slope +0.04
Description: Human bronchial epithelial (HBE) cells were purchased from Cambrex Bioscience Ltd, UK., and were stored frozen in liquid nitrogen until required for use.
HBE cells were amplified by growing in secondary culture according to the suppliers' instructions. Cells were seeded at densities of between 3,000 to 4,000/cm^2 in plastic T-25 culture flasks in bronchial epithelial cell growth medium (BEGM) prepared from bronchial epithelial basal medium (BEBM, Cambrex, UK) supplemented with bovine pituitary extract, hydrocortisone, human epidermal growth factor, epinephrine, transferrin, insulin, retinoic acid, triiodothyronine, gentamicin, and amphotericin B. Cultures were maintained at 37° C. in 5% CO2 in a humidified incubator. Medium was changed every 1 to 3 days until cells were approximately 90% confluent. Cells were then passaged with trypsin EDTA according to the suppliers' instructions, and either used for further cell cultures, or cryopreserved in liquid nitrogen in BEGM containing 10% foetal bovine serum and 10% DMSO.
HBE cells were prepared for electrophysiology studies by growing as tertiary cultures on Snapwell (Corning) 0.4μ clear polyester membrane inserts 1.2 cm^2 coated with collagen IV (Sigma). Cells were seeded at approximately 10^5/cm^2 in 0.5 ml 1:1 DMEM (Cambrex, UK) BEGM containing bovine pituitary extract (50 μg/ml), hydrocortisone (0.5 μg/ml), human epidermal growth factor (0.5 ng/ml), epinephrine (0.5 μg/ml), transferrin (10 μg/ml), insulin (5 μg/ml), retinoic acid (50 nM), and gentamicin (50 μg/ml) (Danahay medium; Danahay et al. 2002). Snapwell inserts were mounted in 6-well plates with 3 ml Danahay medium in the wells, and grown at 37° C. in 5% CO2 in a humidified incubator. Medium was changed every 1 to 3 days. An apical air-liquid interface (ALI) was established as the cells achieved confluence (3 to 6 days) by removal of medium from the centre of the insert. Confluent differentiated bronchial epithelial cells were used for electrophysiology studies at between 15 and 29 days after establishing ALI.
Differentiated HBE cells grown to confluence at an air-liquid interface for 15 to 29 days were used to study substances for ability to achieve long duration down regulation of the epithelial amiloride-sensitive sodium channel (ENaC).
Step 1: Treatment with substance. For each group of cells treated with a substance, 30 μl of 100 times final concentration of substance was added to the 3 ml basolateral culture medium, mixed and 150 μl of the resultant basolateral fluid was transferred to the apical surface for 5 min. For non-treatment control groups of basolateral fluid with no added substance was transferred to the apical surface. After 5 min. equilibration the excess apical fluid was then transferred back to the basolateral side of the culture well.
Step 2: Variable period of incubation with the substance. Dependent on the individual experiment the cells were returned to the 37° C. incubator for periods of 0 min. to 120 min.
Step 3: Period of substance washout with fresh culture medium. For experiments to study the duration of a substance response the HBE cells on Snapwell inserts were washed with fresh culture medium (no added substance) at 37° C. and placed in fresh 6-well plates containing 3 ml fresh culture medium (no added substance) on the basolateral side. […] Step 3 was omitted in studies where the duration of the substance response was not investigated.
Step 4: Wash with Krebs-Ringer buffer and assembly in Ussing chambers. The Snapwell insert cultures of HBE cells were removed from the 6-well plates and washed with excess Krebs-Ringer buffer (120 mM-NaCl, 25 mM-NaHCO3, 3.3 mM-KH2PO4, 0.8 mM-K2HPO4, 1.2 mM-CaCl2, 1.2 mM-MgCl2, 10 mM-glucose) pH7.4 at 37° C. The inserts were then mounted in Ussing chambers (Snapwell diffusion chambers, Costar UK Ltd.). Each side of the chamber was filled with 5 ml Krebs-Ringer buffer and gassed continuously with 95% O2/5% CO2 at 37° C. […]

[1] = down regulation of ENaC activity

N=C(N)c1ccc2cc(OC(=O)c3ccc(N=C(N)N)cc3)ccc2c1 [6-amidino-2-napthyl 4-guanidinobenzoate]
average baseline Isc slope in initial recording period (1 μM 60 min, 3 h 00 min washout, FIG. 7D): +0.93 μAmp/min
average baseline Isc slope in initial recording period (1 μM 60 min, 4 h 30 min washout, FIG. 7E): +0.60 μAmp/min
amiloride ΔIsc compared to control (1 μM 60 min, then 4 h 30 min culture medium washout): not significantly different
slope of rising baseline short circuit current relative to untreated controls (3 h 00 min in fresh culture, first 15 minutes of recording, FIGS. 7D and 7A): over 20 times
time to half maximal inhibition (onset) [1]: ≤ 5 min
time to maximum down regulation (onset) [1]: ≤ 30 min
